Measurements reported in patent US20230242544A1, “QUINAZOLINE COMPOUNDS, PREPARATION METHODS AND USES THEREOF” (INVENTISBIO CO., LTD., priority 2020, published 2023).
pKd: −log10 of the molar value.

Experiments:
Ba/F3_KRAS^G12D cells = Ba/F3_KRAS^G12D cells (Homo sapiens, UniProt P01116, G12D, cells depend on it); assay: Ba/F3 KRAS G12D cell proliferation assay (CellTiter-Glo); type: cell-based; conditions: treated for 3 days, cell-titer Glo, cell growth inhibition, read-out: BaF3_KRAS^G12D IC50
Experimental: Ba/F3_KRAS^G12D cells (KYinno, China) were generated by transducing Ba/F3 parental cells with the recombinant KRAS^G12D lentivirus and followed by 1 ug/mL of puromycin selection and IL3 depletion. […] Cells were seeded at a density of 5×10^3 per well into 96-well plate and incubated overnight. Serial diluted compounds were added to each well. Cells were treated with the compounds for 3 days, after which cell-titer Glo reagent (Promega #G7572) was used to assess cell proliferation. The luminescence signal was then collected on Tecan Spark plate reader. […] Cell growth inhibition of IC50 is calculated with the equation of Y=Bottom+(Top−Bottom)/(1+10^((Log IC50−X)*Hill Slope))

[1] = biological target: recombinant human KRAS^G12D protein (Homo sapiens, UniProt P01116, G12D); assay: Temperature-dependent Fluorescence (TdF) KRAS G12D protein binding assay; conditions: 6 μM KRAS^G12D protein, 10 μM compound, Sypro Orange; Kd calculated from the fluorescent shift
Experimental: The Temperature-dependent Fluorescence (TdF) assay was used to analyze binding affinity of compound to recombinant human KRAS^G12D protein. The TdF assay was conducted in the 96-well-based real-time fluorescence plate reader (ABI 7500 or Roche LightCycler 480). Fluorescent dye Sypro Orange (Sigma) was used to monitor the protein folding-unfolding transition. Protein-compound binding was gauged by the shift in the unfolding transition temperature (ΔTm) acquired with and without compound. Each reaction sample consists of 6 μM KRAS^G12D Protein, 10 μM compound, and Sypro Orange dye (in 1% DMSO) in 20 μL reaction buffer (25 mM HEPES pH 7.5, 150 mM NaCl, 10 mM MgCl2). […] Binding affinity (Kd value) was calculated based on the degree of fluorescent shift of the protein with and without compound.

recombinant human KRAS^G12D protein, sequence (P01116 1-188 isoform P01116-2 G12D): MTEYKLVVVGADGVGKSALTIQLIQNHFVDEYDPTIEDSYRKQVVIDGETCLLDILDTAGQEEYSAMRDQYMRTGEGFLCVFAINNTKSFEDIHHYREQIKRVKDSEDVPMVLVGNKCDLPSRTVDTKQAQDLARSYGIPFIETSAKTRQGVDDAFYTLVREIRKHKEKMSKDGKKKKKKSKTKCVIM
Ba/F3_KRAS^G12D cells, sequence (P01116 whole entry G12D): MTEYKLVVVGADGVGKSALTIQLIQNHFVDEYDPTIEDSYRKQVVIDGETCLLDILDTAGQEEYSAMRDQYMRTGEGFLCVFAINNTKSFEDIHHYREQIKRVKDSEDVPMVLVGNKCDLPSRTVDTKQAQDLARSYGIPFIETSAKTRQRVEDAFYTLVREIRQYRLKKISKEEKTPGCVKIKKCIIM

Row | Structure (SMILES) | GI50 (Ba/F3_KRAS^G12D cells) [nM] | pKd [1]
1 | CN(C)C1CCN(c2nc(N3CC4CCC(C3)N4)c3cc(Cl)c(-c4cc(O)cc5ccccc45)c(F)c3n2)C1 (stereo not shown) [Compound 52] | 500 to 5000 | < 5.30
2 | Oc1cc(-c2c(Cl)cc3c(N4CC5CCC(C4)N5)nc(OCCN4CCOCC4)nc3c2F)c2ccccc2c1 [Compound 59] | 500 to 5000 | < 5.30
3 | Fc1c(-c2cccc3ccccc23)c(Cl)cc2c(N3CC4CCC(C3)N4)nc(OCC34CCCN3CCC4)nc12 [Compound 69] | 500 to 5000 | 5.30 to 6.30
4 | N#Cc1cc2c(N3CC4CCC(C3)N4)nc(OC[C@@]34CCCN3C[C@H](F)C4)nc2c(F)c1-c1cc(O)cc2cccc(Cl)c12 [Compound 55] | < 500 | > 6.30
5 | CN1CCC[C@H]1COc1nc(N2CCNC(CC(N)=O)C2)c2cc(Cl)c(-c3cc(O)cc4ccccc34)c(F)c2n1 (stereo partly shown) [Compound 12] | > 5000 | < 5.30
6 | CN(C)CCCOc1nc(N2CC3CCC(C2)N3)c2cc(Cl)c(-c3cccc4cccc(Cl)c34)c(F)c2n1 [Compound 6] | 500 to 5000 | < 5.30
7 | CN1CCC[C@H]1COc1nc(N2CC3CCC(C2)N3)c2cc(Cl)c(-c3c(N)cccc3F)c(F)c2n1 [Compound 31] | 500 to 5000 | < 5.30
8 | CN1C[C@H](F)C[C@H]1COc1nc(N2CC3CCC(C2)N3)c2cc(Cl)c(-c3cc(O)cc4ccccc34)c(F)c2n1 [Compound 76] | 500 to 5000 | > 6.30
9 | CN1CC2(CCN(c3nc(N4CC5CCC(C4)N5)c4cc(Cl)c(-c5cc(O)cc6ccccc56)c(F)c4n3)CC2)C1 [Compound 45] | 500 to 5000 | < 5.30
10 | CN1CCC[C@H]1COc1nc(N2CC3CCC(C2)N3)c2cc(Cl)c(-c3nc(N)cc4ccccc34)c(F)c2n1 [Compound 27] | 500 to 5000 | < 5.30
11 | CN(C)CC1CCN(c2nc(N3CC4CCC(C3)N4)c3cc(Cl)c(-c4cc(O)cc5ccccc45)c(F)c3n2)CC1 [Compound 53] | 500 to 5000 | < 5.30
12 | Oc1cc(-c2c(Cl)cc3c(N4CC5CCC(C4)N5)nc(OCCN4CCCC4)nc3c2F)c2ccccc2c1 [Compound 78] | 500 to 5000 | < 5.30
13 | CN1CCC[C@H]1COc1nc(N2CC3CCC(C2)N3)c2cc(Cl)c(-c3cc(O)cc4ccccc34)c(F)c2n1 [Compound 2] | 500 to 5000 | > 6.30
14 | Oc1cc(-c2c(Cl)cc3c(N4CC5CCC(C4)N5)nc(OC[C@@]45CCCN4C[C@H](F)C5)nc3c2F)c2c(Cl)c(F)ccc2c1 [Compound 74] | < 500 | > 6.30
15 | Cc1cccc2[nH]nc(-c3c(Cl)cc4c(N5CC6CCC(C5)N6)nc(OC[C@@H]5CCCN5C)nc4c3F)c12 [Compound 75] | 500 to 5000 | < 5.30
16 | CN1CCC[C@H]1COc1nc(N2CC3CCC(C2)N3)c2cc(Cl)c(-c3cccc4cccc(Cl)c34)c(F)c2n1 [Compound 7] | 500 to 5000 | < 5.30
17 | CN1CCC[C@H]1COc1nc(N2CCC3NCC32)c2cc(Cl)c(-c3cc(O)cc4cccc(Cl)c34)c(F)c2n1 (stereo partly shown) [Compound 18] | 500 to 5000 | < 5.30
18 | CN1CCC2(CCN(c3nc(N4CC5CCC(C4)N5)c4cc(Cl)c(-c5cc(O)cc6ccccc56)c(F)c4n3)C2)C1 (stereo not shown) [Compound 44] | 500 to 5000 | < 5.30
19 | CN(C)C1CCCN(c2nc(N3CC4CCC(C3)N4)c3cc(Cl)c(-c4cc(O)cc5ccccc45)c(F)c3n2)C1 (stereo not shown) [Compound 56] | 500 to 5000 | < 5.30
20 | Oc1cc(-c2c(Cl)cc3c(N4CC5CCC(C4)N5)nc(OCCN4CCC(O)C4)nc3c2F)c2ccccc2c1 (stereo not shown) [Compound 46] | > 5000 | 5.30 to 6.30
21 | Oc1cc(-c2ccc3c(N4CC5CCC(C4)N5)nc(OCC45CCCN4CCC5)nc3c2F)c2c(Cl)cccc2c1 [Compound 82] | > 5000 | < 5.30
22 | Cc1cc(N)nc(-c2c(Cl)cc3c(N4CC5CCC(C4)N5)nc(OC[C@@]45CCCN4C[C@H](F)C5)nc3c2F)c1C(F)(F)F [Compound 142] | < 500 | > 6.30
23 | Nc1cccc(F)c1-c1c(Cl)cc2c(N3C4CCC3CNC4)nc(OCC34CCCN3CCC4)nc2c1F [Compound 66] | > 5000 | < 5.30
24 | CN1CCC2CN(c3nc(N4CC5CCC(C4)N5)c4cc(Cl)c(-c5cc(O)cc6ccccc56)c(F)c4n3)CC2C1 (stereo not shown) [Compound 43] | 500 to 5000 | < 5.30
25 | CN1CCC(c2nc(N3CC4CCC(C3)N4)c3cc(Cl)c(-c4cc(O)cc5ccccc45)c(F)c3n2)CC1 [Compound 60] | 500 to 5000 | < 5.30
26 | CN1CCN(c2nc(N3CC4CCC(C3)N4)c3cc(Cl)c(-c4cc(O)cc5ccccc45)c(F)c3n2)CC1 [Compound 83] | 500 to 5000 | < 5.30

Next, values leading:

Row | GI50 (Ba/F3_KRAS^G12D cells) [nM] | pKd [1] | Structure (SMILES)
27 | < 500 | > 6.30 | C#Cc1c(F)ccc2cc(O)cc(-c3c(Cl)cc4c(N5CC6CCC(C5)N6)nc(OC[C@@]56CCCN5C[C@H](F)C6)nc4c3F)c12 [Compound 146]
28 | > 5000 | < 5.30 | CN1CCC[C@H]1COc1nc(-c2cnc(N)s2)c2cc(Cl)c(-c3cc(O)cc4cccc(Cl)c34)c(F)c2n1 [Compound 121]
29 | 500 to 5000 | < 5.30 | COc1nc(N2CC3CCC(C2)N3)c2cc(Cl)c(-c3nc(N)cc(C)c3C(F)(F)F)c(F)c2n1 [Compound 144]
30 | 500 to 5000 | 5.30 to 6.30 | Oc1cc(-c2c(Cl)cc3c(N4CCNCC4)nc(OC[C@@]45CCCN4C[C@H](F)C5)nc3c2F)c2ccccc2c1 [Compound 126]
31 | 500 to 5000 | < 5.30 | CCc1cccc2cc(O)cc(-c3c(Cl)cc4c(N5CC6CCC(C5)N6)nc(OC[C@@]56CCCN5C[C@H](F)C6)nc4c3F)c12 (single isomer, unassigned) [Compound 134]
32 | < 500 | > 6.30 | C#Cc1c(F)ccc2cc(O)cc(-c3c(OC)cc4c(N5CC6CCC(C5)N6)nc(OC[C@@]56CCCN5C[C@H](F)C6)nc4c3F)c12 [Compound 163]
33 | < 500 | > 6.30 | N#Cc1cc2c(N3CC4CCC(C3)N4)nc(OC[C@@]34CCCN3C[C@H](F)C4)nc2c(F)c1-c1cc(O)cc2ccccc12 [Compound 86]
34 | 500 to 5000 | 5.30 to 6.30 | N#Cc1cc2c(N3CC4CCC(C3)N4)nc(OC[C@@]34CCCN3C[C@H](F)C4)nc2c(F)c1-c1cccc2cccc(Cl)c12 [Compound 89]
35 | < 500 | > 6.30 | Oc1cc(-c2c(Cl)cc3c(N4CC5CCC(C4)N5)nc(OC[C@]45CCCN4C[C@@H](F)C5)nc3c2F)c2ccccc2c1 (single isomer, unassigned) [Compound 106]
36 | 500 to 5000 | > 6.30 | Cc1cccc2cccc(-c3c(Cl)cc4c(N5CC6CCC(C5)N6)nc(OC[C@@]56CCCN5C[C@H](F)C6)nc4c3F)c12 [Compound 131]
37 | < 500 | > 6.30 | Oc1cc(-c2c(Cl)cc3c(N4CC5CCC(C4)N5)nc(OC[C@@]45CCCN4C[C@H](F)C5)nc3c2F)c2c(Cl)c(F)ccc2c1 (single isomer, unassigned) [Compound 139]
38 | 500 to 5000 | < 5.30 | N#CC[C@H]1CN(c2nc(OC[C@@]34CCCN3C[C@H](F)C4)nc3c(F)c(-c4cc(O)cc5ccccc45)c(Cl)cc23)CCN1 [Compound 96]
39 | 500 to 5000 | > 6.30 | Cc1cccc2cc(F)cc(-c3c(Cl)cc4c(N5CC6CCC(C5)N6)nc(OC[C@@]56CCCN5C[C@H](F)C6)nc4c3F)c12 [Compound 137]
40 | < 500 | > 6.30 | Oc1cc(-c2c(Cl)cc3c(N4CC5CCC(C4)N5)nc(OC[C@@]45CCCN4C[C@H](F)C5)nc3c2F)c2c(Cl)c(F)ccc2c1 (single isomer, unassigned) [Compound 138]
41 | > 5000 | 5.30 to 6.30 | Nc1cc2ccccc2c(-c2c(Cl)cc3c(N4CC5CCC(C4)N5)nc(OCC45CCCN4CCC5)nc3c2F)n1 [Compound 116]
42 | < 500 | > 6.30 | N#Cc1cc2c(N3CC4CCC(C3)N4)nc(OC[C@@]34CCCN3C[C@H](F)C4)nc2c(F)c1-c1cc(O)cc2cccc(Cl)c12 (single isomer, unassigned) [Compound 120]
43 | 500 to 5000 | 5.30 to 6.30 | Nc1nc2c(-c3c(Cl)cc4c(N5CC6CCC(C5)N6)ncnc4c3F)ccc(F)c2s1 [Compound 140]
44 | < 500 | > 6.30 | C#Cc1c(F)ccc2cc(O)cc(-c3cc(Cl)c4c(N5CC6CCC(C5)N6)nc(OC[C@@]56CCCN5C[C@H](F)C6)nc4c3F)c12 [Compound 168]
45 | < 500 | > 6.30 | Oc1cc(-c2c(Cl)cc3c(N4CC5CCC(C4)N5)nc(OC[C@@]45CCCN4C[C@H](F)C5)nc3c2F)c2c(Cl)cccc2c1 (single isomer, unassigned) [Compound 103]
46 | < 500 | > 6.30 | Oc1cc(-c2c(OCC3CC3)cc3c(N4CC5CCC(C4)N5)nc(OC[C@@]45CCCN4C[C@H](F)C5)nc3c2F)c2c(Cl)cccc2c1 [Compound 124]
47 | < 500 | > 6.30 | Cc1cccc2cc(O)cc(-c3c(C#N)cc4c(N5CC6CCC(C5)N6)nc(OC[C@@]56CCCN5C[C@H](F)C6)nc4c3F)c12 [Compound 88]
